Assay results: PubChem BioAssay (NCI)
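Exposure lasted 48 hours, with cells grown in 96-well plates and compounds tested at five concentrations. TGI: total growth inhibition.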

Assays:
Experiment in all cases: NCI anticancer screen, dose series, 48 h
SNB-75 CNS = test system: SNB-75 CNS
786-0 renal = test system: 786-0 renal
CCRF-CEM leukemia = test system: CCRF-CEM leukemia
LXFL 529 NSCLC = test system: LXFL 529 NSCLC
RXF 393 renal = test system: RXF 393 renal
UACC-257 melanoma = test system: UACC-257 melanoma
COLO 205 colon = test system: COLO 205 colon
NCI-H460 lung = test system: NCI-H460 lung
HCT-15 colon = test system: HCT-15 colon
K-562 leukemia = test system: K-562 leukemia
SR leukemia = test system: SR leukemia
UO-31 renal = test system: UO-31 renal
A549 NSCLC = test system: A549 NSCLC
CAKI-1 renal = test system: CAKI-1 renal
TK-10 renal = test system: TK-10 renal
NCI-H226 lung = test system: NCI-H226 lung
MDA-MB-435 = test system: MDA-MB-435
MCF7 breast = test system: MCF7 breast
HS 578T breast = test system: HS 578T breast
T-47D breast = test system: T-47D breast

For `CSc1nc2c(nc(C)c(=O)n2C2OCC(OC(C)=O)C(OC(C)=O)C2OC(C)=O)c(=O)[nH]1` (stereo not drawn), the TGI (SNB-75 CNS) was > 100 µM, the TGI (786-0 renal) was > 100 µM and the TGI (CCRF-CEM leukemia) was > 100 µM. For the same compound, the TGI (LXFL 529 NSCLC) was > 100 µM, the TGI (RXF 393 renal) was > 100 µM and the TGI (UACC-257 melanoma) was > 100 µM. The TGI (COLO 205 colon) was > 100 µM, the TGI (NCI-H460 lung) was > 100 µM and the TGI (HCT-15 colon) was > 100 µM. For the same compound, the TGI (K-562 leukemia) was > 100 µM, the TGI (SR leukemia) was > 100 µM and the TGI (UO-31 renal) was > 100 µM. The TGI (A549 NSCLC) was > 100 µM, the TGI (CAKI-1 renal) was > 100 µM and the TGI (TK-10 renal) was > 100 µM.
In the case of `COc1cc(C[S+]2CCCC2)c(SC)cc1C[S+]1CCCC1`, the TGI (SNB-75 CNS) is reported as > 100 µM, the TGI (NCI-H226 lung) is reported as > 100 µM and the TGI (786-0 renal) is reported as > 100 µM. The TGI (CCRF-CEM leukemia) was > 100 µM, the TGI (LXFL 529 NSCLC) was > 100 µM and the TGI (RXF 393 renal) was > 100 µM. For the same compound, the TGI (UACC-257 melanoma) was > 100 µM, the TGI (COLO 205 colon) was > 100 µM and the TGI (NCI-H460 lung) was > 100 µM. For the same compound, the TGI (HCT-15 colon) was > 100 µM, the TGI (K-562 leukemia) was > 100 µM and the TGI (UO-31 renal) was > 100 µM. The TGI (A549 NSCLC) was > 100 µM, the TGI (CAKI-1 renal) was > 100 µM and the TGI (TK-10 renal) was > 100 µM.
For `C[C@]12C=CC(=O)C=C1CC[C@H]1[C@@H]3C[C@@H](O)[C@](O)(C(=O)CO)[C@@]3(C)C[C@H](O)[C@@]12F`, the TGI (SNB-75 CNS) was > 100 µM, the TGI (NCI-H226 lung) was > 100 µM and the TGI (786-0 renal) was > 100 µM. The TGI (CCRF-CEM leukemia) was > 100 µM, the TGI (LXFL 529 NSCLC) was > 100 µM and the TGI (RXF 393 renal) was > 100 µM. For the same compound, the TGI (UACC-257 melanoma) was > 100 µM, the TGI (COLO 205 colon) was > 100 µM and the TGI (NCI-H460 lung) was > 100 µM. The TGI (HCT-15 colon) was > 100 µM, the TGI (K-562 leukemia) was > 100 µM and the TGI (SR leukemia) was > 100 µM. The TGI (UO-31 renal) was > 100 µM, the TGI (A549 NSCLC) was > 100 µM and the TGI (CAKI-1 renal) was > 100 µM. The TGI (TK-10 renal) was > 100 µM.
With `O=C(c1ccc(O)cc1)C1c2c3c(cc(O)c2C(c2ccc(O)cc2)C1c1cc(O)cc(O)c1)OC(c1ccc(O)cc1)C3c1cc2c(cc1O)OC(c1ccc(O)cc1)C2c1cc(O)cc(O)c1` (stereo not drawn) the TGI (SNB-75 CNS) was > 12.5 µM, the TGI (NCI-H226 lung) was > 12.5 µM and the TGI (786-0 renal) was > 12.5 µM. The TGI (CCRF-CEM leukemia) was > 12.5 µM, the TGI (LXFL 529 NSCLC) was > 12.5 µM and the TGI (UACC-257 melanoma) was > 12.5 µM. The TGI (COLO 205 colon) was > 12.5 µM, the TGI (NCI-H460 lung) was > 12.5 µM and the TGI (HCT-15 colon) was > 12.5 µM. For the same compound, the TGI (K-562 leukemia) was > 12.5 µM, the TGI (SR leukemia) was > 12.5 µM and the TGI (UO-31 renal) was > 12.5 µM. For the same compound, the TGI (A549 NSCLC) was > 12.5 µM, the TGI (CAKI-1 renal) was > 12.5 µM and the TGI (TK-10 renal) was > 12.5 µM.
With `CNC(=S)N(C)C(=S)Nn1c(=O)c(C)nn(C)c1=S` the TGI (SNB-75 CNS) was > 100 µM, the TGI (NCI-H226 lung) was > 100 µM and the TGI (786-0 renal) was > 100 µM. For the same compound, the TGI (CCRF-CEM leukemia) was > 100 µM, the TGI (LXFL 529 NSCLC) was > 100 µM and the TGI (RXF 393 renal) was > 100 µM. The TGI (UACC-257 melanoma) was > 100 µM, the TGI (COLO 205 colon) was > 100 µM and the TGI (NCI-H460 lung) was > 100 µM. The TGI (HCT-15 colon) was > 100 µM, the TGI (K-562 leukemia) was > 100 µM and the TGI (SR leukemia) was > 100 µM. The TGI (A549 NSCLC) was > 100 µM.
For `CC(=O)c1c2c(cc3c1CC1(Cc4ccccc4C1=O)C3)CCC2` (stereo not drawn), the TGI (SNB-75 CNS) was > 100 µM, the TGI (MDA-MB-435) was 64 µM and the TGI (MCF7 breast) was 44.3 µM. The TGI (NCI-H226 lung) was 72.4 µM, the TGI (786-0 renal) was 95.9 µM and the TGI (HS 578T breast) was > 100 µM. The TGI (CCRF-CEM leukemia) was > 100 µM, the TGI (T-47D breast) was 49.3 µM and the TGI (RXF 393 renal) was 59.1 µM. For the same compound, the TGI (UACC-257 melanoma) was 64.6 µM, the TGI (COLO 205 colon) was 30.7 µM and the TGI (NCI-H460 lung) was > 100 µM. The TGI (HCT-15 colon) was > 100 µM, the TGI (K-562 leukemia) was > 100 µM and the TGI (SR leukemia) was 47.9 µM. For the same compound, the TGI (UO-31 renal) was > 100 µM, the TGI (A549 NSCLC) was > 100 µM and the TGI (CAKI-1 renal) was 66 µM. For the same compound, the TGI (TK-10 renal) was > 100 µM.
In the case of `COc1ccc(C2S/C(=C\c3ccccc3O)C(=O)N2NC(=O)Cc2ccccc2)cc1` (stereo not drawn), the TGI (SNB-75 CNS) is reported as > 100 µM, the TGI (NCI-H226 lung) is reported as > 100 µM and the TGI (786-0 renal) is reported as > 100 µM. For the same compound, the TGI (CCRF-CEM leukemia) was > 100 µM, the TGI (LXFL 529 NSCLC) was > 100 µM and the TGI (RXF 393 renal) was > 100 µM. The TGI (UACC-257 melanoma) was > 100 µM, the TGI (COLO 205 colon) was > 100 µM and the TGI (NCI-H460 lung) was > 100 µM. For the same compound, the TGI (HCT-15 colon) was > 100 µM, the TGI (K-562 leukemia) was > 100 µM and the TGI (SR leukemia) was > 100 µM. The TGI (UO-31 renal) was > 100 µM, the TGI (A549 NSCLC) was > 100 µM and the TGI (CAKI-1 renal) was > 100 µM. For the same compound, the TGI (TK-10 renal) was > 100 µM.
In the case of `O=C1N=c2ccccc2=C1c1c(O)[nH]c2ccccc12`, the TGI (SNB-75 CNS) is reported as 35 µM, the TGI (MDA-MB-435) is reported as > 100 µM and the TGI (MCF7 breast) is reported as 25.3 µM. For the same compound, the TGI (NCI-H226 lung) was > 100 µM, the TGI (786-0 renal) was 21.6 µM and the TGI (HS 578T breast) was > 100 µM. The TGI (CCRF-CEM leukemia) was > 100 µM, the TGI (T-47D breast) was 3.77 µM and the TGI (RXF 393 renal) was 16.3 µM. The TGI (UACC-257 melanoma) was > 100 µM, the TGI (COLO 205 colon) was > 100 µM and the TGI (NCI-H460 lung) was 59.3 µM. The TGI (HCT-15 colon) was 19.6 µM, the TGI (K-562 leukemia) was > 100 µM and the TGI (SR leukemia) was 17.8 µM. The TGI (UO-31 renal) was 30.5 µM, the TGI (A549 NSCLC) was > 100 µM and the TGI (CAKI-1 renal) was > 100 µM. The TGI (TK-10 renal) was 72.7 µM.
